This is an account of results in patent US11459313B2, “Aziridinyl and amino dimeric naphthoquinone compounds and use for acute myeloid leukemia” (University of Maryland, Baltimore, priority 2016, dated 2022).

What all share (assay type): cell-based, human
For experiment [1], the system named is MOLM-14 cells. The experiment is described as follows: Cell survival assay (trypan blue exclusion), MOLM-14. To be noted: 72 hours; at 0.1, 1, 10 and 100 μM. The method, then: (§1) MOLM-.14 and THP-1 cells were seeded in 96-well plates and treated with DMSO, mono- and bis-aziridinyl dimeric naphthoquinone compounds, or dimethylamine dimeric naphthoquinone Compound 114 as previously described. Cells were incubated for 72 hours, and then counted using trypan blue exclusion on the Countess® automated cell counter (Life Technologies®). Cell counts were performed in duplicates, and the averages were graphed using GraphPad Prism® software (GraphPad®).
(§2) Cell survival was determined using trypan blue exclusion, in which cells are plated and the following day treated similarly to the proliferation assay. The bis-aziridinyl dimeric naphthoquinone Compound 101 was effective in decreasing cell number at increasing concentrations of compound in MOLM-14 and THP1 cells.

Experiment [2] concerns THP-1 cells. As to the kind of experiment: Cell survival assay (trypan blue exclusion), THP-1. To be noted: 72 hours; at 1, 10 and 100 μM. The method, then:
as §1, §2

Experiment [3] has as its system MOLM-14 cells. The experiment is described as follows: WST-1 cell proliferation assay, MOLM-14. The conditions noted are these: Homo sapiens. The method, then:
(§3) Cell lines were seeded into 96-well plates the afternoon prior to treatment. Approximately 18 hours later, bis and mono-aziridine dimeric naphthoquinone compounds were semi-serially diluted in dimethyl sulfoxide (DMSO) and then growth medium, and added to cells. Plates were incubated for 72 hours prior to addition of WST-1 (Promega®). Plates were read after 4 additional hours of incubation at 37° C. using a Bio-Tek Synergy® HT plate reader (Bio-Tek®). Data were analyzed and graphed using GraphPad Prism® Software (Graph Pad®).
(§4) Primary AML cells from patients and cell lines were seeded into 96-well plates the afternoon prior to treatment. Eighteen hours later, amino-dimeric naphthoquinone Compounds 106, 101, and 114 were semi-serially diluted in dimethyl sulfoxide (DMSO) and then growth medium, and added to the cells. In order to quantitate proliferation of metabolically active cells, plates were incubated for 72 hours for cell lines and 48 hours for primary AML cells prior to addition of water-soluble tetrazolium (WST-1) (Clontech®). Plates were read after four additional hours of incubation at 37° C. using a Bio-Tek Synergy® HT plate reader (Bio-Tele®). Data were analyzed and graphed using GraphPad Prism® Software (GraphPad®). IC50 was defined as the concentration that decreases viable cell numbers by 50%. IC50 values were calculated as mean±standard deviation from at least two independent experiments. If availability of primary blasts was limited, the IC50 was obtained from a single experiment.
To investigate antiproliferative activity of amino-dimeric naphthoquinones against AML cells, an MTT-like cell proliferation assay was performed in the AML cell lines using WST-1 (water soluble tetrazolium salts; Promega®). MOLM-14 and AML-D cells, as well as normal hematopoietic bone marrow cells from a healthy donor, were exposed to a range of concentrations of Compound 101. Human leukemia cells were cultured in the presence of the compound for 72 hours (48 hours for primary cells) and WST-1 reagent was then added. The cells then were monitored for cell growth or the number of cells proliferating and the IC50 calculated. The IC50 is the concentration at which 50% of the cells are not proliferating compared to control cells treated with vehicle. See FIG. 2A, FIG. 2B, and FIG. 2C for representative graphs of these IC50 determinations.
Background: Tetrazolium dyes change colour on reduction, which living cells bring about.

Experiment [4] has as its system MOLM-14 cells. As to the kind of experiment: Cellular reactive oxygen species (H2DCFA), MOLM-14. The protocol:
MOLM-14 and THP-1 cells in logarithmic growth phase were centrifuged and resuspended in PBS at one million cells per milliliter (mL) of medium. Cells were preloaded with 2′,7′-dichlorodihydrofluorescein diacetate (H2DCFA, Life Technologies®) at a final concentration of 2 μM and incubated at 37° C. in the dark for 25 minutes. Cells were centrifuged and resuspended at one million per mL in phenol red-free RPMI plus 10% FBS and incubated at 37° C. in the dark for 25 minutes. Treatments were prepared at 2× concentrations of […] in complete phenol red-free RPMI and added to each well to yield 1× concentrations of 20, 10, 2, or 0.5 μM. Cells were incubated in the dark at 37° C. and measurement of ROS was performed with a Bio-tek® Synergy HT plate reader at various time points post treatment.
In order to elucidate the mechanisms by which the bis-aziridinyl naphthoquinone exerts anti-leukemic activity, the amount of reactive oxygen species (ROS) that cells produced upon treatment with Compound 101 was examined. MOLM-14 and THP-1 cells were loaded with the ROS dye H2DCFA and subsequently plated into 96-well plates. Cells were treated with vehicle (negative control), Compound 101 in varying concentrations, or hydrogen peroxide (positive control), and observed over a period of 2-6 hours. The relative fluorescence units (RFU) were read at various time points. […]

Experiment [5] has as its system MV4-11 cells. The experiment is described as follows: WST-1 cell proliferation assay, MV4-11. The conditions noted are these: Homo sapiens, MV4-11, Example 5 text; read-out: IC50 MV4-11. The method, then:
as §3, §4

Experiment [6] relates to MOLM-14 cells. As to the kind of experiment: Clonogenic assay, MOLM-14. To be noted: 24 hours exposure, then methylcellulose; p<0.05 at 1, 10 and 100 μM. The method, then:
MOLM-14 and THP-1 were treated with either DMSO control or mono-aziridine dimeric naphthoquinone or bis-aziridinyl dimeric naphthoquinone compounds at concentrations of 0.1, 1, 10 and 100 μM (micromolar) for 24 hours. The cells then were washed with growth medium and resuspended in growth medium and methylcellulose with or without DMSO or the treatment compounds. After 7 or 13 days (MOLM-14 or THP-1, respectively), treatment was terminated by addition of 1.0 mg/mL, iodonitrotetrazolium chloride (INT; Sigma Aldrich®) and read 24 hours later with an automated colony counter (Symbiosis®). Data were analyzed and graphed using GraphPad Prism® software.
Next, the effect of bis-aziridinyl-dimeric naphthoquinone Compound 101 on AML cell survival and viability. […] For colony formation assays, cell lines were treated with the indicated doses of aziridinyl dimeric naphthoquinone Compound 101 for 24 hours, and subsequently washed and plated in methylcellulose to observe clonogenic potential after 7-10 days. See above for additional comments on the methods.
Clonogenic inhibition was […] when bis-aziridinyl dimeric naphthoquinone was removed from cells after 24 hours of treatment. The bis-aziridinyl dimeric naphthoquinone was able to reduce clonogenicity with just a 24-hour exposure prior to plating.

“Also recorded” adds a separate entry of the source. Read-outs that look alike come from different tables or passages of the source. Bounds are passed on as bounds.

Regarding `O=C1C(C2=C(N3CC3)C(=O)c3ccccc3C2=O)=C(N2CC2)C(=O)c2ccccc21` [Compound 101, 3,3′-di(aziridin-1-yl)-[2,2′-binaphthalene]-1,1 4,4′-tetrone], in experiment [1], the “viable cells, MOLM-14” value is reported as “statistically significant (p<0.05) reduction in viable cells”. Also, the “viable cells, THP-1” value in experiment [2] is reported as “statistically significant (p<0.05) reduction in viable cells”. Besides, the IC50 in experiment [3] (MOLM-14, 72 h, 72 hours, WST-1, read-out: IC50 against MOLM-14 cells) is 150 to 200 nM; in experiment [3] (MOLM-14, Example 5 text, read-out: IC50 MOLM-14) it was 180 ± 60 nM; in experiment [3] (MOLM-14, Table 5, read-out: IC50 MOLM-14 (n)) it was 250 ± 200 nM; in experiment [5] it was 1050 ± 50 nM. Moreover, the “time to production of ROS, MOLM-14” value in experiment [4] is at most 2 h. Further, the “ROS production, MOLM-14” value in experiment [4] (0.5-20 μM, 2-6 hours) is “dose-dependent increase in ROS production”. Moreover, the “clonogenic activity (colony formation), MOLM-14” value in experiment [6] was “marked reduction in clonogenic activity; also recorded: inhibits clonogenicity”.

What is called IC50 is the concentration that inhibits the measured activity by half.
